These results are taken from US20230278995A1, “1,3,4-OXADIAZOLE DERIVATIVE COMPOUNDS AS HISTONE DEACETYLASE 6 INHIBITOR, AND THE PHARMACEUTICAL COMPOSITION COMPRISING THE SAME” (CHONG KUN DANG PHARMACEUTICAL CORP., priority 2020, published 2023).

Assay [1] has as its target T1, human recombinant HDAC6 (Homo sapiens, UniProt Q9UBN7).
T1 construct: purchased Calbiochem Inc. 382180
T1 sequence (Q9UBN7 1-1215): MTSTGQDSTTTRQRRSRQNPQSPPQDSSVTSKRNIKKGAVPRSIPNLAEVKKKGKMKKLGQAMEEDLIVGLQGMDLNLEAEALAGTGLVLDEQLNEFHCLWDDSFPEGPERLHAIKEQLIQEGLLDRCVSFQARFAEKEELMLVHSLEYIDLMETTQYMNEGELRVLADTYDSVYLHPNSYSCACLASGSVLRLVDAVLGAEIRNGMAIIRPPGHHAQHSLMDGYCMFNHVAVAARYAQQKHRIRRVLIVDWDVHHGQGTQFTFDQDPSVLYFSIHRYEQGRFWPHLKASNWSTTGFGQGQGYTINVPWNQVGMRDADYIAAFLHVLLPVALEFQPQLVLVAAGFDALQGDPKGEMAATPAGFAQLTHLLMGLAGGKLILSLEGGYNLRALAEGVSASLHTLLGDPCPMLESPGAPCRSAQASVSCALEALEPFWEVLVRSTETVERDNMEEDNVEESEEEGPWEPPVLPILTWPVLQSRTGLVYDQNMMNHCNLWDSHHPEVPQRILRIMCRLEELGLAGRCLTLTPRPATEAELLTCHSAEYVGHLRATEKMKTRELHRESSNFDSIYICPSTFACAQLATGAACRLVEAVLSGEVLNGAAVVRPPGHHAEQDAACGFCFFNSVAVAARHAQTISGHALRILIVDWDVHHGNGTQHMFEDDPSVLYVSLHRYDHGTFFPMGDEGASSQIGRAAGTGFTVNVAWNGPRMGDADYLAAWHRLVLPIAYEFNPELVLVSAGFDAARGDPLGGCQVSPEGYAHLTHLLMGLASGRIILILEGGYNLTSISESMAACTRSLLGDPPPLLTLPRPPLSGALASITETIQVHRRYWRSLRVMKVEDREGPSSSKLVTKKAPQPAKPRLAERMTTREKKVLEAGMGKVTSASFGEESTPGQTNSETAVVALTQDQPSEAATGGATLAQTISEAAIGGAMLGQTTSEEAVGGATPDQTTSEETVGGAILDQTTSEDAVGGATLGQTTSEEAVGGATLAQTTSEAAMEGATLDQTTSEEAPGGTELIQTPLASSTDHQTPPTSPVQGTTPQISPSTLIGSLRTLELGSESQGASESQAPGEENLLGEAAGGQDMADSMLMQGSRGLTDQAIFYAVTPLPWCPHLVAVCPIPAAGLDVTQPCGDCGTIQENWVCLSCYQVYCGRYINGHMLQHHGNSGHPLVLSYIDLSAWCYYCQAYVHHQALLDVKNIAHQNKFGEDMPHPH
The assay can be described thus: HDAC enzyme activity inhibition assay (HDAC Fluorimetric Drug Discovery Kit), HDAC6. It is filed as biochemical. The note with it: for HDAC6 selectivity (fold): HDAC1 vs HDAC6; for IC50: human recombinant HDAC6, same protocol as HDAC1. As to the method:
(§1) For the HDAC1 enzyme activity test, human recombinant HDAC1 (BML-SE456) was used as an enzyme source and Fluor de Lys©-SIRT1 (BNL-K1177) was used as a substrate. After dispensing 5-fold diluted compounds into a 96-well plate, 0.3 μg of enzyme and 10 μM substrate were added to each well of the plate and allowed to react at 30° C. for 60 minutes. Next, Fluor de Lys© Developer II (BML-K1176) was added and reacted for 30 minutes to complete the reaction, and then the fluorescence values (Ex 360, Em 460) were measured using a multi-plate reader (Flexstation 3, Molecular Device). The HDAC6 enzymes were tested using human recombinant HDAC6 (382180) from Calbiochem Inc., according to the same protocol as the HDAC1 enzyme activity test method. With respect to the final result values, respective IC50 values were calculated using GraphPad Prism 4.0 program (Table 2).

In assay [2] the target is T2, human recombinant HDAC1 (Homo sapiens, UniProt Q13547).
T2 construct: purchased Enzo Life Sciences, Inc. BML-SE456
T2 sequence (Q13547 whole entry): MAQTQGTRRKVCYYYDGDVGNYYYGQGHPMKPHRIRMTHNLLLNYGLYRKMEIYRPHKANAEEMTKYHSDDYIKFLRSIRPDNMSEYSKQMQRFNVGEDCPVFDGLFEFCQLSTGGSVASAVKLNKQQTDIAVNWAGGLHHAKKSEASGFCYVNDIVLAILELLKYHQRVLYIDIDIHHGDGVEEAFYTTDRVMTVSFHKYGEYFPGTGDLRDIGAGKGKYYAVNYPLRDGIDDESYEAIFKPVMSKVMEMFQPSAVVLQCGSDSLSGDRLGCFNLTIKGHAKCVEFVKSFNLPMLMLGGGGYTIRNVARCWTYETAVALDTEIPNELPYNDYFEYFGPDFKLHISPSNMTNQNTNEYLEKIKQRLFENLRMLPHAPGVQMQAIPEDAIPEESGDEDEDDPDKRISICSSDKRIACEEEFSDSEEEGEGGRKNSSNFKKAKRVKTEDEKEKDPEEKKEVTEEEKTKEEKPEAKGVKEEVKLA
The assay can be described thus: HDAC enzyme activity inhibition assay (HDAC Fluorimetric Drug Discovery Kit), HDAC1. As to conditions: human recombinant HDAC1, Fluor de Lys-SIRT1 substrate, 30° C. 60 minutes. It is filed as biochemical. As to the method:
as §1

The structures appear in SMILES notation.

Take `O=C(N(Cc1ccc(-c2nnc(C(F)F)o2)cc1F)c1ccccc1)C1(F)CCNCC1` [Compound 2865, N-(4-(5-(difluoromethyl)-1,3,4-oxadiazol-2-yl)-2-fluorobenzyl)-4-fluoro-N-phenylpiperidine-4-carboxamide 2,2,2-trifluoroacetate]: in assay [1], the “HDAC6 selectivity (fold)” value is listed as 30 fold and the concentration for half-maximal inhibition (IC50) was determined as 1000 nM. Also, in assay [2], the IC50 is above 30000 nM.

`CN1CCC(F)(C(=O)N(Cc2ccc(-c3nnc(C(F)F)o3)cc2F)c2ccccc2)CC1` [Compound 2866, N-(4-(5-(difluoromethyl)-1,3,4-oxadiazol-2-yl)-2-fluorobenzyl)-4-fluoro-1-methyl-N-phenylpiperidine-4-carboxamide]: in assay [1], the “HDAC6 selectivity (fold)” value amounted to 149 fold and the IC50 was 134 nM. For the same molecule, the IC50 in assay [2] was above 20000 nM.

As for `CCN1CCC(F)(C(=O)N(Cc2ccc(-c3nnc(C(F)F)o3)cc2F)c2ccccc2)CC1` [Compound 2867, N-(4-(5-(difluoromethyl)-1,3,4-oxadiazol-2-yl)-2-fluorobenzyl)-1-ethyl-4-fluoro-N-phenylpiperidine-4-carboxamide], in assay [1], the “HDAC6 selectivity (fold)” value is on record as 97 fold and the half-maximal inhibitory concentration (IC50) turned out to be 204 nM. Also, in assay [2], the IC50 was above 20000 nM.

Turning to `O=C(N(Cc1ccc(-c2nnc(C(F)F)o2)cc1F)c1ccccc1)C1(F)CCN(C2CCC2)CC1` [Compound 2868, 1-cyclobutyl-N-(4-(5-(difluoromethyl)-1,3,4-oxadiazol-2-yl)-2-fluorobenzyl)-4-fluoro-N-phenylpiperidine-4-carboxamide], in assay [2], the IC50 is above 20000 nM.

For the molecule `O=C(N(Cc1ccc(-c2nnc(C(F)F)o2)cc1F)c1ccccc1)C1(F)CCN(C2COC2)CC1` [Compound 2869, N-(4-(5-(difluoromethyl)-1,3,4-oxadiazol-2-yl)-2-fluorobenzyl)-4-fluoro-1-(oxetan-3-yl)-N-phenylpiperidine-4-carboxamide], the “HDAC6 selectivity (fold)” value in assay [1] was 464 fold. For the same molecule, the IC50 is 108 nM in assay [1] and above 50000 nM in assay [2].

With `CN1CCC(F)(C(=O)N(Cc2ccc(-c3nnc(C(F)F)o3)cn2)c2ccccc2)CC1` [Compound 2951, N-((5-(5-(difluoromethyl)-1,3,4-oxadiazol-2-yl)pyridin-2-yl)methyl)-4-fluoro-1-methyl-N-phenylpiperidine-4-carboxamide], in assay [1], the “HDAC6 selectivity (fold)” value came to 569 fold and the IC50 came to 74.7 nM. The IC50 in assay [2] came to 42600 nM.

For the molecule `CC(C)N1CCC(F)(C(=O)N(Cc2ccc(-c3nnc(C(F)F)o3)cn2)c2ccccc2)CC1` [Compound 2952, N-((5-(5-(difluoromethyl)-1,3,4-oxadiazol-2-yl)pyridin-2-yl)methyl)-4-fluoro-1-isopropyl-N-phenylpiperidine-4-carboxamide], in assay [1], the “HDAC6 selectivity (fold)” value turned out to be 504 fold. Also, the values for the IC50 in assay [1] and in assay [2] were 99.1 nM and above 50000 nM, respectively.

For the molecule `O=C(N(Cc1ccc(-c2nnc(C(F)F)o2)cn1)c1ccccc1)C1(F)CCN(C2CCC2)CC1` [Compound 2953, 1-cyclobutyl-N-((5-(5-(difluoromethyl)-1,3,4-oxadiazol-2-yl)pyridin-2-yl)methyl)-4-fluoro-N-phenylpiperidine-4-carboxamide], in assay [1], the “HDAC6 selectivity (fold)” value is on record as 543 fold and the IC50 is 80.9 nM. In assay [2], the half-maximal inhibitory concentration (IC50) worked out at 44000 nM.

Consider `CN1CCC(F)(C(=O)N(Cc2ccc(-c3nnc(C(F)F)o3)cn2)c2cccc(F)c2)CC1` [Compound 2969, N-((5-(5-(difluoromethyl)-1,3,4-oxadiazol-2-yl)pyridin-2-yl)methyl)-4-fluoro-N-(3-fluorophenyl)-1-methylpiperidine-4-carboxamide], for which, in assay [1], the “HDAC6 selectivity (fold)” value is on record as 1,298 fold and the IC50 amounted to 38.5 nM. For the same molecule, in assay [2], the IC50 was above 50000 nM.

For the molecule `CC(C)N1CCC(F)(C(=O)N(Cc2ccc(-c3nnc(C(F)F)o3)cn2)c2cccc(F)c2)CC1` [Compound 2970, N-((5-(5-(difluoromethyl)-1,3,4-oxadiazol-2-yl)pyridin-2-yl)methyl)-4-fluoro-N-(3-fluorophenyl)-1-isopropylpiperidine-4-carboxamide], in assay [1], the “HDAC6 selectivity (fold)” value is reported as 1,046 fold and the half-inhibitory concentration (IC50) worked out at 47.8 nM. Also, the concentration for half-maximal inhibition (IC50) in assay [2] is above 50000 nM.

Turning to `O=C(N(Cc1ccc(-c2nnc(C(F)F)o2)cn1)c1cccc(F)c1)C1(F)CCN(C2CCC2)CC1` [Compound 2971, 1-cyclobutyl-N-((5-(5-(difluoromethyl)-1,3,4-oxadiazol-2-yl)pyridin-2-yl)methyl)-4-fluoro-N-(3-fluorophenyl)piperidine-4-carboxamide], in assay [1], the “HDAC6 selectivity (fold)” value is listed as 740 fold and the half-maximal inhibitory concentration (IC50) worked out at 67.5 nM. Besides, in assay [2], the IC50 was above 50000 nM.

Regarding `O=C(N(Cc1ccc(-c2nnc(C(F)F)o2)cn1)c1cccc(F)c1)C1(F)CCN(C2COC2)CC1` [Compound 2972, N-((5-(5-(difluoromethyl)-1,3,4-oxadiazol-2-yl)pyridin-2-yl)methyl)-4-fluoro-N-(3-fluorophenyl)-1-(oxetan-3-yl)piperidine-4-carboxamide], in assay [1], the “HDAC6 selectivity (fold)” value was 1,190 fold and the IC50 came to 42 nM. Moreover, the IC50 in assay [2] is above 50000 nM.

In the case of `CN1CC(F)(C(=O)N(Cc2ccc(-c3nnc(C(F)F)o3)cn2)c2ccccc2)C1` [Compound 2973, N-((5-(5-(difluoromethyl)-1,3,4-oxadiazol-2-yl)pyridin-2-yl)methyl)-3-fluoro-1-methyl-N-phenylazetidine-3-carboxamide], the “HDAC6 selectivity (fold)” value in assay [1] was 1,075 fold. Besides, the results for the IC50 in assay [1] and in assay [2] were 46.5 nM and above 50000 nM, respectively.

Consider `CC(C)N1CC(F)(C(=O)N(Cc2ccc(-c3nnc(C(F)F)o3)cn2)c2ccccc2)C1` [Compound 2974, N-((5-(5-(difluoromethyl)-1,3,4-oxadiazol-2-yl)pyridin-2-yl)methyl)-3-fluoro-1-isopropyl-N-phenylazetidine-3-carboxamide], for which, in assay [1], the “HDAC6 selectivity (fold)” value is on record as 1,054 fold and the IC50 came to 47.4 nM. Further, in assay [2], the concentration for half-maximal inhibition (IC50) is above 50000 nM.

For the molecule `O=C(N(Cc1ccc(-c2nnc(C(F)F)o2)cn1)c1ccccc1)C1(F)CN(C2CCC2)C1` [Compound 2975, 1-cyclobutyl-N-((5-(5-(difluoromethyl)-1,3,4-oxadiazol-2-yl)pyridin-2-yl)methyl)-3-fluoro-N-phenylazetidine-3-carboxamide], in assay [1], the “HDAC6 selectivity (fold)” value is on record as 1,022 fold and the half-maximal inhibitory concentration (IC50) was determined as 48.9 nM. Further, in assay [2], the half-inhibitory concentration (IC50) was above 50000 nM.

As for `O=C(N(Cc1ccc(-c2nnc(C(F)F)o2)cn1)c1cccc(F)c1)C1(F)CN(C2CCCC2)C1` [Compound 3051, 1-cyclopentyl-N-((5-(5-(difluoromethyl)-1,3,4-oxadiazol-2-yl)pyridin-2-yl)methyl)-3-fluoro-N-(3-fluorophenyl)azetidine-3-carboxamide], the half-maximal inhibitory concentration (IC50) in assay [2] is above 50000 nM.

`COCCC(=O)N1CC(F)(C(=O)N(Cc2ccc(-c3nnc(C(F)F)o3)cn2)c2cccc(F)c2)C1` [Compound 3167, N-((5-(5-(difluoromethyl)-1,3,4-oxadiazol-2-yl)pyridin-2-yl)methyl)-3-fluoro-N-(3-fluorophenyl)-1-(3-methoxypropanoyl)azetidine-3-carboxamide]: the half-inhibitory concentration (IC50) in assay [2] was above 50000 nM.

As for `O=C(N1CCC(F)(C(=O)N(Cc2ccc(-c3nnc(C(F)F)o3)cc2F)c2ccccc2)CC1)C(F)(F)F` [Compound 3441, N-(4-(5-(difluoromethyl)-1,3,4-oxadiazol-2-yl)-2-fluorobenzyl)-4-fluoro-N-phenyl-1-(2,2,2-trifluoroacetyl)piperidine-4-carboxamide], the 50% inhibitory concentration (IC50) in assay [2] was above 50000 nM.

In general, IC50 refers to the concentration needed to halve the response being measured.
